What all share (type): cell-based
One experiment deals with S. aureus 209P NIHJ-JCl. Nature of the experiment: in vitro antibacterial activity, agar plate dilution method (MIC). As to conditions: Staphylococcus aureus, read-out: Minimum Inhibitory Concentration (MIC). How it is done: (§1) One platinum loopfull of each test microorganism incubated overnight in Mueller Hinton broth, was inoculated to Mueller Hinton agar (inoculum size: 10^6 CFU/ml). Such culture media containing various antibiotics in various concentrations were prepared. After incubation at 37° C. for 16 hours, the minimum inhibitory concentrations (MIC: μg/ml) were measured.

In another experiment the test system is S. marcescens IAM 1184. The description is as above. Conditions: Serratia marcescens, read-out: Minimum Inhibitory Concentration (MIC). The protocol: as §1
For the next experiment, the system named is E. cloacae 963. The experiment is described as above. Conditions: read-out: Minimum Inhibitory Concentration (MIC). How it is done:
as §1

The subject of another experiment is P. vulgaris HX-19. The experiment is described as above. As to conditions: Proteus vulgaris, read-out: Minimum Inhibitory Concentration (MIC). How it is done: as §1
The subject of the next experiment is K. pneumoniae PCI-602. Described as above. As to conditions: Klebsiella pneumoniae, read-out: Minimum Inhibitory Concentration (MIC). The protocol: as §1
For another experiment, the system named is E. coli NIHJ JC2. The experiment is described as above. As to conditions: Escherichia coli, read-out: Minimum Inhibitory Concentration (MIC). The protocol:
as §1

The next experiment deals with S. aureus 109P NIHJ-JCl. Nature of the experiment: in vitro antibacterial activity, agar plate dilution method (MIC), second part of Table 1. Conditions: Staphylococcus aureus, 109PNIHJJCL, read-out: Minimum Inhibitory Concentration (MIC). The protocol:
as §1

Setting [1] is: Enterobacter cloacae, 963, 16 h.
Setting [2] is: IAM1184, S. marcescens IAM 1184, 10^6 CFU/ml, MH agar, 37° C., 16 hours.
Where [3] appears, read: Enterobacter cloacae, E. cloacae 963, 10^6 CFU/ml, MH agar, 37° C., 16 hours.
Setting [4] is: HX19, P. vulgaris HX-19, 10^6 CFU/ml, MH agar, 37° C., 16 hours.
Where [5] appears, read: PCI602, K. pneumoniae PCI-602, 10^6 CFU/ml, MH agar, 37° C., 16 hours.
Setting [6] is: NIHJJC2, E. coli NIHJ JC2, 10^6 CFU/ml, MH agar, 37° C., 16 hours.
The mark [7] stands for this setting: S. aureus 109P NIHJ-JCl, 10^6 CFU/ml, MH agar, 37° C., 16 hours.

The structures appear in SMILES notation. In brackets after ≈: the same amount, converted by molar mass. Where two headings read alike, the source gives them in different places. Where only a bound is given, the exact number is not on record here.

In the case of `CO/N=C(\C(=O)N[C@@H]1C(=O)N2C(C(=O)[O-])=C(OCc3ccncc3)CS[C@H]12)c1csc(N)n1.[Na+]` [Example 1, Sodium 7β-[2-(2-aminothiazol-4-yl)-(Z)-2-methoxyiminoacetamido]-3-(4-pyridylmethoxy)-3-cephem-4-carboxylate], the MIC is 0.78 µg/mL in the experiment on S. aureus 209P NIHJ-JCl (209P, 16 h); 0.1 µg/mL with S. marcescens IAM 1184 (IAM1184, 16 h); 0.2 µg/mL with E. cloacae 963 (setting [1]); 0.05 µg/mL with P. vulgaris HX-19 (HX19, 16 h); < 0.006 µg/mL in the experiment on K. pneumoniae PCI-602 (PCI602, 16 h); 0.2 µg/mL in the experiment on E. coli NIHJ JC2 (NIHJJC2, 16 h).
Turning to `CO/N=C(\C(=O)N[C@@H]1C(=O)N2C(C(=O)[O-])=C(OCc3cc[n+](C)cc3)CS[C@H]12)c1csc(N)n1` [Example 32, 7β-[2-(2-aminothiazol-4-yl)-(Z)-2-methoxyiminoacetamido]-3-(1-methyl-4-pyridiniomethoxy)-3-cephem-4-carboxylate], the MIC with S. marcescens IAM 1184 (setting [2]) was determined as 0.05 µg/mL (≈ 0.0991 µM); in the experiment on E. cloacae 963 (setting [3]) it was 0.1 µg/mL (≈ 0.198 µM); with P. vulgaris HX-19 (setting [4]), 0.2 µg/mL (≈ 0.396 µM); with K. pneumoniae PCI-602 (setting [5]), 0.025 µg/mL (≈ 0.0495 µM); in the experiment with E. coli NIHJ JC2 (setting [6]), 0.1 µg/mL (≈ 0.198 µM); with S. aureus 109P NIHJ-JCl (setting [7]) it was 0.039 µg/mL (≈ 0.0773 µM).
`CCO/N=C(\C(=O)N[C@@H]1C(=O)N2C(C(=O)[O-])=C(OCc3cc[n+](CC(=O)O)cc3)CS[C@H]12)c1csc(N)n1` [Example 51, Sodium 7β-[2-(2-aminothiazol-4-yl)-(Z)-2-ethoxyiminoacetamido]-3-(1-carboxylatomethyl-4-pyridiniomethoxy)-3-cephem-4-carboxylate]: the MIC in the experiment with S. marcescens IAM 1184 (setting [2]) was found to be 0.1 µg/mL; with E. cloacae 963 (setting [3]), 0.1 µg/mL; in the experiment on P. vulgaris HX-19 (setting [4]), 0.05 µg/mL; with K. pneumoniae PCI-602 (setting [5]), 0.025 µg/mL; with E. coli NIHJ JC2 (setting [6]), 0.2 µg/mL; in the experiment on S. aureus 109P NIHJ-JCl (16 h) it was 3.12 µg/mL.
Consider `CO/N=C(\C(=O)N[C@@H]1C(=O)N2C(C(=O)[O-])=C(OCc3cccc[n+]3C)CS[C@H]12)c1csc(N)n1` [Example 44, 7β-[2-(2-aminothiazol-4-yl)-(Z)-2-methoxyiminoacetamido]-3-(1-methyl-2-pyridiniomethoxy)-3-cephem-4-carboxylate], for which the MIC in the experiment on S. marcescens IAM 1184 (setting [2]) came out at 0.2 µg/mL (≈ 0.396 µM); with E. cloacae 963 (setting [3]), 0.2 µg/mL (≈ 0.396 µM); in the experiment with P. vulgaris HX-19 (setting [4]) it was 0.2 µg/mL (≈ 0.396 µM); in the experiment with K. pneumoniae PCI-602 (setting [5]) it was 0.05 µg/mL (≈ 0.0991 µM); in the experiment with E. coli NIHJ JC2 (setting [6]), 0.39 µg/mL (≈ 0.773 µM); in the experiment on S. aureus 109P NIHJ-JCl (setting [7]) it was 0.2 µg/mL (≈ 0.396 µM).
In the case of `C[n+]1ccc(COC2=C(C(=O)[O-])N3C(=O)[C@@H](NC(=O)/C(=N\OC(C(=O)O)c4ccc(O)c(O)c4)c4csc(N)n4)[C@H]3SC2)cc1` (single isomer, unassigned) [Example 38, Sodium 7β-[2-(2-aminothiazol-4-yl)-(Z)-2-(α-carboxylato-3,4-dihydroxybenzyloxyimino)acetamido]-3-(1-methyl-4-pyridiniomethoxy)-3-cephem-4-carboxylate (diastereisomer A)], the MIC with S. marcescens IAM 1184 (setting [2]) stood at 0.1 µg/mL; in the experiment on E. cloacae 963 (setting [3]) it was 0.039 µg/mL; with P. vulgaris HX-19 (setting [4]) it was 0.39 µg/mL; in the experiment with K. pneumoniae PCI-602 (setting [5]), 0.025 µg/mL; with E. coli NIHJ JC2 (setting [6]), 0.039 µg/mL; in the experiment with S. aureus 109P NIHJ-JCl (setting [7]), 0.039 µg/mL.
`CO/N=C(\C(=O)N[C@@H]1C(=O)N2C(C(=O)[O-])=C(OCc3nc(C)cs3)CS[C@H]12)c1csc(N)n1.[Na+]` [Example 16, Sodium 7β-[2-(2-aminothiazol-4-yl)-(Z)-2-methoxyiminoacetamido]-3-(4-methylthiazol-2-ylmethoxy)-3-cephem-4-carboxylate]: the MIC was 3.12 µg/mL with S. aureus 209P NIHJ-JCl (209P, 16 h); 0.2 µg/mL with S. marcescens IAM 1184 (IAM1184, 16 h); 0.2 µg/mL in the experiment on E. cloacae 963 (setting [1]); < 0.006 µg/mL with P. vulgaris HX-19 (HX19, 16 h); < 0.006 µg/mL in the experiment on K. pneumoniae PCI-602 (PCI602, 16 h); 0.2 µg/mL in the experiment with E. coli NIHJ JC2 (NIHJJC2, 16 h).
For the compound `C[n+]1ccc(COC2=C(C(=O)[O-])N3C(=O)[C@@H](NC(=O)/C(=N\OCc4ccccc4CC(=O)O)c4csc(N)n4)[C@H]3SC2)cc1` [Example 40, Sodium 7β-[2-(2-aminothiazol-4-yl)-(Z)-2-(2-carboxylatomethylbenzyloxyimino)acetamido]-3-(1-methyl-4-pyridiniomethoxy)-3-cephem-4-carboxylate], the MIC was 0.1 µg/mL with S. marcescens IAM 1184 (setting [2]); 0.39 µg/mL with E. cloacae 963 (setting [3]); 0.0125 µg/mL in the experiment on P. vulgaris HX-19 (setting [4]); 0.05 µg/mL with K. pneumoniae PCI-602 (setting [5]); 0.39 µg/mL in the experiment with E. coli NIHJ JC2 (setting [6]); 1.56 µg/mL with S. aureus 109P NIHJ-JCl (setting [7]).
Consider `CO/N=C(\C(=O)N[C@@H]1C(=O)N2C(C(=O)O)=C(OCc3ccc(C(N)=O)cc3)CS[C@H]12)c1csc(N)n1` [Example 14, Sodium 7β-[2-(2-aminothiazol-4-yl)-(Z)-2-methoxyiminoacetamido]-3-(4-carbamoylbenzVloxy)-3-cephem-4-carboxylate], for which the MIC in the experiment with S. aureus 209P NIHJ-JCl (S. aureus 209P NIHJ-JCl, 10^6 CFU/ml, MH agar, 37° C., 16 hours) is 3.12 µg/mL; in the experiment with S. marcescens IAM 1184 (setting [2]), 0.1 µg/mL; in the experiment with E. cloacae 963 (setting [3]), 0.2 µg/mL; in the experiment on P. vulgaris HX-19 (setting [4]), 0.05 µg/mL; in the experiment on K. pneumoniae PCI-602 (setting [5]), < 0.006 µg/mL; with E. coli NIHJ JC2 (setting [6]), 0.39 µg/mL.
`C=C(O/N=C(\C(=O)N[C@@H]1C(=O)N2C(C(=O)[O-])=C(OCc3cc[n+](C)cc3)CS[C@H]12)c1csc(N)n1)C(=O)O` [Example 37, Sodium 7β-[2-(2-aminothiazol-4-yl)-(Z)-2-(1-carboxylatovinyloxyimino)acetamido]-3-(1-methyl-4-pyridiniomethoxy)-3-cephem-4-carboxylate]: the MIC is < 0.006 µg/mL with S. marcescens IAM 1184 (setting [2]); 0.025 µg/mL in the experiment on E. cloacae 963 (setting [3]); 0.025 µg/mL in the experiment with P. vulgaris HX-19 (setting [4]); < 0.006 µg/mL in the experiment on K. pneumoniae PCI-602 (PCI602, 16 h); 0.025 µg/mL with E. coli NIHJ JC2 (NIHJJC2, 16 h); 1.56 µg/mL with S. aureus 109P NIHJ-JCl (16 h).
Turning to `C[n+]1ccc(COC2=C(C(=O)[O-])N3C(=O)[C@@H](NC(=O)/C(=N\OC(C)(C)C(=O)O)c4csc(N)n4)[C@H]3SC2)cc1` [Example 36, Sodium 7β-[2-(2-aminothiazol-4-yl)-(Z)-2-(1-carboxylato-1-methylethoxyimino)acetamido]-3-(1-methy-4-pyridiniomethoxy)-3-cephem-4-carboxylate], the MIC in the experiment on S. marcescens IAM 1184 (setting [2]) worked out at 0.025 µg/mL; in the experiment on E. cloacae 963 (setting [3]), 0.05 µg/mL; in the experiment with P. vulgaris HX-19 (setting [4]), 0.05 µg/mL; in the experiment with K. pneumoniae PCI-602 (setting [5]), 0.0125 µg/mL; in the experiment with E. coli NIHJ JC2 (setting [6]), 0.05 µg/mL; in the experiment on S. aureus 109P NIHJ-JCl (16 h), 6.25 µg/mL.
As for `NC(=O)c1ccc(COC2=C(C(=O)[O-])N3C(=O)[C@@H](NC(=O)/C(=N\OCC(=O)[O-])c4csc(N)n4)[C@H]3SC2)cc1.[Na+].[Na+]` [Example 22, Disodium 7β-[2-(2-aminothiazol-4-yl)-(Z)-2-carboxylatomethoxyiminoacetamido]-3-(4-carbamoylbenzyloxy)-3-cephem-4-carboxylate], the MIC in the experiment with S. aureus 209P NIHJ-JCl (209P, 16 h) was found to be 50 µg/mL; in the experiment with S. marcescens IAM 1184 (IAM1184, 16 h), 0.0125 µg/mL; in the experiment on E. cloacae 963 (setting [1]) it was 0.1 µg/mL; in the experiment on P. vulgaris HX-19 (HX19, 16 h), 0.025 µg/mL; in the experiment with K. pneumoniae PCI-602 (PCI602, 16 h), 0.025 µg/mL; with E. coli NIHJ JC2 (NIHJJC2, 16 h), 0.05 µg/mL.
With `CO/N=C(\C(=O)N[C@@H]1C(=O)N2C(C(=O)[O-])=C(OCc3ccc(C#N)cc3)CS[C@H]12)c1csc(N)n1.[Na+]` [Example 12, Sodium 7β-[2-(2-aminothiazol-4-yl)-(Z)-2-methoxyiminoacetamido]-3-(4-cyanobenzyloxy)-3-cephem-4-carboxylate], the MIC in the experiment on S. aureus 209P NIHJ-JCl (209P, 16 h) was 0.78 µg/mL; in the experiment on S. marcescens IAM 1184 (IAM1184, 16 h), 0.39 µg/mL; in the experiment with E. cloacae 963 (setting [1]), 0.78 µg/mL; in the experiment on P. vulgaris HX-19 (HX19, 16 h), 0.025 µg/mL; in the experiment on K. pneumoniae PCI-602 (PCI602, 16 h) it was 0.0125 µg/mL; in the experiment with E. coli NIHJ JC2 (NIHJJC2, 16 h) it was 0.78 µg/mL.
As for `CC(C)(O/N=C(\C(=O)N[C@@H]1C(=O)N2C(C(=O)O)=C(OCc3ccncc3)CS[C@H]12)c1csc(N)n1)C(=O)O` [Example 4, Disodium 7β-[2-(2-aminothiaxol-4-yl)-(Z)-2-(1-carboxylato-1-methylethoxyimino)acetamido]-3-(4-pyridylmethoxy)-3-cephem-4-carboxylate], the MIC with S. aureus 209P NIHJ-JCl (209P, 16 h) was found to be 12.5 µg/mL; in the experiment on S. marcescens IAM 1184 (IAM1184, 16 h), 0.025 µg/mL; in the experiment on E. cloacae 963 (setting [3]), 0.039 µg/mL; with P. vulgaris HX-19 (setting [4]), 0.0125 µg/mL; in the experiment with K. pneumoniae PCI-602 (setting [5]), 0.05 µg/mL; with E. coli NIHJ JC2 (setting [6]), 0.39 µg/mL.

These data come from patent US4918070A, “Cephalosporin derivatives and antibacterial agents” (Banyu Pharmaceutical Co., Ltd., priority 1987, dated 1990).
